Test systems include RPMI-8226; PC-3; T47D; NCI-H522; Malme-3M; MDA-MB-435; HL-60; CCRF-CEM; SF-268; K562; SN12C; LOX IMVI; MCF7; CAKI-1; DU-145; MDA-MB-231; IGROV-1; SF-539; HCT-116; NCI-H460.
Common to all, as to assay: DTP human tumour cell line panel, 48 h

The text below walks through data of ChEMBL document CHEMBL1201862, “PubChem BioAssay data set” (2004).

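These data come from cells grown in 96-well plates and exposed to compound for 48 hours at five concentrations. GI50: concentration for 50% inhibition of growth.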 Activity calls are given as the source filed them. No stated cut-off is given here; in the data, active = GI50 up to about 1.1 µM and inactive = higher. Residues, ends and D or L forms follow the SMILES beside them. *: point of attachment. Boc = CC(C)(C)OC(=O)*; OBn = c1ccc(CO*)cc1

What is called GI50 is the concentration that inhibits growth by half. In the case of `COc1ccc(CNC(C)C(=O)O)cc1` (stereo not given), the GI50 in the assay on RPMI-8226, with PC-3, in the assay with T47D, with NCI-H522, in the assay with Malme-3M and in the assay on MDA-MB-435 was > 100 µM (inactive) throughout. The GI50 in the assay on HL-60 is > 100 µM (inactive); with CCRF-CEM, 19.7 µM (inactive); with SF-268, > 100 µM (inactive); in the assay on K562, > 100 µM (inactive); in the assay on SN12C, > 100 µM (inactive); in the assay on LOX IMVI, > 100 µM (inactive). The GI50 with MCF7, in the assay with CAKI-1, in the assay on DU-145, with MDA-MB-231, in the assay with IGROV-1 and in the assay on SF-539 was > 100 µM (inactive) in each case. The GI50 in the assay with HCT-116 and in the assay with NCI-H460 was > 100 µM (inactive) each time.

For `CCOC(=O)NC(Nc1c(F)c(F)c(F)c(F)c1F)(C(F)(F)F)C(F)(F)F`, the GI50 with RPMI-8226, with PC-3, in the assay on T47D, in the assay with NCI-H522, in the assay on Malme-3M and with MDA-MB-435 was > 100 µM (inactive) throughout. Also, the GI50 in the assay with HL-60, with CCRF-CEM, with SF-268, in the assay on K562, in the assay on SN12C and in the assay on LOX IMVI was > 100 µM (inactive) each time. The GI50 in the assay on MCF7, in the assay on CAKI-1, with DU-145, with MDA-MB-231, with IGROV-1 and in the assay with SF-539 was > 100 µM (inactive) in each case. Further, the GI50 with HCT-116 and in the assay with NCI-H460 was > 100 µM (inactive) in each case.

Take `N=C(N)NS(=O)(=O)c1ccc(NC(=O)c2ccc3nc4ccccc4c(N)c3c2)cc1`: the GI50 in the assay on RPMI-8226, in the assay with PC-3, with T47D, with NCI-H522, with Malme-3M and with MDA-MB-435 was > 100 µM (inactive) in each case. Further, the GI50 in the assay with HL-60, with CCRF-CEM, with SF-268, in the assay with K562, with SN12C and with LOX IMVI was > 100 µM (inactive) in each case. Besides, the GI50 in the assay on MCF7, in the assay on CAKI-1, in the assay on DU-145, with MDA-MB-231, in the assay with IGROV-1 and in the assay on SF-539 was > 100 µM (inactive) in each case. Further, the GI50 in the assay with HCT-116 and in the assay with NCI-H460 was > 100 µM (inactive) in each case.

Take `CC(C)CC(NC(=O)OC(C)(C)C)C(=O)NC(CC(=O)OCc1ccccc1)C(=O)OCc1ccccc1` (stereo not drawn) (Boc-Leu-Asp(OBn)-OBn; configuration not given here): the GI50 in the assay on RPMI-8226 is 27.8 µM (inactive); in the assay with PC-3, 29.4 µM (inactive); in the assay with T47D, > 100 µM (inactive); in the assay on NCI-H522, 27.9 µM (inactive); with Malme-3M, 51.5 µM (inactive); in the assay on MDA-MB-435 it was 40.1 µM (inactive). Further, the GI50 in the assay on HL-60 was 26.1 µM (inactive); in the assay on CCRF-CEM it was 33.1 µM (inactive); in the assay on SF-268 it was 41.8 µM (inactive); in the assay with K562, 33.5 µM (inactive); in the assay with SN12C, 22.4 µM (inactive); in the assay with LOX IMVI, 22.8 µM (inactive). For the same compound, the GI50 is 31.5 µM (inactive) in the assay with MCF7; > 100 µM (inactive) in the assay with CAKI-1; 37.9 µM (inactive) with DU-145; 39.4 µM (inactive) in the assay on MDA-MB-231; > 10 µM (inactive) in the assay with IGROV-1; 31 µM (inactive) in the assay on SF-539. Further, the GI50 was 30.7 µM (inactive) in the assay with HCT-116 and 30.8 µM (inactive) with NCI-H460.

For `CCc1c[n+]2c(cc1C1=CN3c4ccccc4[C@]45CCN6C/C(=C/CO)[C@H](C[C@H]64)[C@@H]([C@@H]1O)[C@H]35)-c1[nH]c3ccccc3c1CC2`, the GI50 in the assay with RPMI-8226, with PC-3, in the assay with T47D, in the assay on NCI-H522, in the assay with Malme-3M and in the assay on MDA-MB-435 was > 50 µM (inactive) in each case. Besides, the GI50 with HL-60, in the assay with CCRF-CEM, in the assay on SF-268, in the assay on K562, in the assay with SN12C and in the assay on LOX IMVI was > 50 µM (inactive) each time. The GI50 with MCF7, with CAKI-1, with DU-145, in the assay with MDA-MB-231, in the assay on IGROV-1 and in the assay on SF-539 was > 50 µM (inactive) in each case. For the same compound, the GI50 in the assay on HCT-116 and in the assay with NCI-H460 was > 50 µM (inactive) throughout.

Regarding `Nc1nc(Cl)c2ncn(Cc3ccccc3CCl)c2n1`, the GI50 in the assay with RPMI-8226 is 11.3 µM (inactive); in the assay with PC-3 it was 15 µM (inactive); with T47D it was 24.2 µM (inactive); with NCI-H522, 2.98 µM (inactive); in the assay with Malme-3M, 3.36 µM (inactive); with MDA-MB-435 it was 6.07 µM (inactive). Further, the GI50 with HL-60 was 3.72 µM (inactive); with CCRF-CEM, 17.7 µM (inactive); with SF-268 it was 4.71 µM (inactive); with K562 it was 4.43 µM (inactive); with SN12C it was 2.74 µM (inactive); in the assay with LOX IMVI, 3.92 µM (inactive). Also, the GI50 is 5.97 µM (inactive) in the assay with MCF7; 6.65 µM (inactive) in the assay with CAKI-1; 14.7 µM (inactive) in the assay on DU-145; 2.96 µM (inactive) in the assay with MDA-MB-231; 6.34 µM (inactive) in the assay with IGROV-1; 18 µM (inactive) in the assay with SF-539. Also, the GI50 is 3.95 µM (inactive) with HCT-116 and 5.66 µM (inactive) with NCI-H460.

Regarding `CC1=C2CC(C)(C)/C=C\C(=O)/C(C)=C\C3=C[C@H](C)C[C@]3(O2)C1=O`, the GI50 in the assay on RPMI-8226 is 0.326 µM (active); with PC-3 it was 2.02 µM (inactive); in the assay on T47D it was 0.544 µM (active); in the assay on NCI-H522, 0.201 µM (active); in the assay on Malme-3M, 0.897 µM (active); in the assay with MDA-MB-435, 0.706 µM (active). Further, the GI50 in the assay on HL-60 was 0.139 µM (active); in the assay on CCRF-CEM, 0.138 µM (active); with SF-268, 6.78 µM (inactive); in the assay with K562 it was 1.51 µM (inactive); in the assay with SN12C, 1.42 µM (inactive); with LOX IMVI, 0.741 µM (active). Further, the GI50 was 0.343 µM (active) in the assay with MCF7; 0.255 µM (active) in the assay with CAKI-1; 4.67 µM (inactive) in the assay with DU-145; 1.05 µM (active) in the assay on MDA-MB-231; 1.56 µM (inactive) in the assay on IGROV-1; 0.946 µM (active) with SF-539. Moreover, the GI50 in the assay with HCT-116 is 0.443 µM (active); with NCI-H460 it was 4.71 µM (inactive).

On to `C/N=C/N(C)c1c2ccccc2nc2ccccc12`, for which the GI50 is > 100 µM (inactive) in the assay with RPMI-8226; > 100 µM (inactive) with PC-3; 85.7 µM (inactive) in the assay with T47D; > 100 µM (inactive) in the assay on NCI-H522; > 100 µM (inactive) in the assay on Malme-3M; > 100 µM (inactive) with MDA-MB-435. The GI50 in the assay with HL-60, in the assay with CCRF-CEM, in the assay on SF-268, in the assay with K562, in the assay with SN12C and in the assay with LOX IMVI was > 100 µM (inactive) in each case. For the same compound, the GI50 in the assay on MCF7, in the assay with CAKI-1, with DU-145, in the assay on MDA-MB-231, in the assay with IGROV-1 and in the assay with SF-539 was > 100 µM (inactive) in each case. Moreover, the GI50 with HCT-116 and in the assay with NCI-H460 was > 100 µM (inactive) in each case.

`CC(=O)OCC1OC(O[C@@H]2C[C@H]3C(C)(C)[C@H](OC(C)=O)CC[C@]3(C)[C@H]3CC[C@]4(C)C(=CC[C@H]4[C@@H](C)C[C@@H](O)[C@H](O)C(C)(C)O)[C@@]32C)C(O)C(O)C1O` (stereo not given in full): the GI50 with RPMI-8226 was 12.2 µM (inactive); in the assay on PC-3 it was 16.9 µM (inactive); in the assay on T47D, 16.7 µM (inactive); in the assay on NCI-H522, 1.67 µM (inactive); with Malme-3M, 17.8 µM (inactive); in the assay with MDA-MB-435 it was 14.8 µM (inactive). The GI50 with HL-60 is 15.7 µM (inactive); in the assay with CCRF-CEM, 17.6 µM (inactive); in the assay with SF-268 it was 15.8 µM (inactive); in the assay with K562, 18.3 µM (inactive); in the assay on SN12C, 17.5 µM (inactive); in the assay on LOX IMVI, 16.2 µM (inactive). For the same compound, the GI50 in the assay on MCF7 was 17.3 µM (inactive); in the assay with CAKI-1 it was 14.2 µM (inactive); in the assay with DU-145, 17.3 µM (inactive); in the assay on MDA-MB-231, 16.9 µM (inactive); with IGROV-1, 18.6 µM (inactive); in the assay on SF-539, 16.4 µM (inactive). Besides, the values for the GI50 with HCT-116 and in the assay with NCI-H460 were 14.4 µM (inactive) and 17.5 µM (inactive), respectively.

For `O=c1n(CC2CO2)c(=O)n(CC2CO2)c(=O)n1CC1CO1` (stereo not given) [TEROXIRONE], the GI50 with RPMI-8226 is 39.4 µM (inactive); in the assay on PC-3, 25 µM (inactive); in the assay with T47D, 17.3 µM (inactive); in the assay with NCI-H522, 13.6 µM (inactive); with Malme-3M it was 25.4 µM (inactive); with MDA-MB-435, 17.9 µM (inactive). Moreover, the GI50 in the assay with HL-60 is 1.55 µM (inactive); with CCRF-CEM, 3.6 µM (inactive); with SF-268, 14.3 µM (inactive); in the assay with K562, 22.8 µM (inactive); with SN12C, 7.83 µM (inactive); in the assay on LOX IMVI, 14.1 µM (inactive). Further, the GI50 in the assay on MCF7 is 11.1 µM (inactive); with CAKI-1 it was 8.04 µM (inactive); in the assay on DU-145, 6.97 µM (inactive); in the assay with MDA-MB-231 it was 26.4 µM (inactive); with IGROV-1, 39.2 µM (inactive); in the assay with SF-539 it was 7.76 µM (inactive). For the same compound, the GI50 with HCT-116 is 22.1 µM (inactive); with NCI-H460, 2.03 µM (inactive).
